Experimental data from US8518956B2, “1-(1-(2-ethoxyethyl)-3-ethyl-7-(4-methylpyridin-2-ylamino)-1H-pyrazolo[4,3-d]pyrimidin-5-yl) piperidine-4-carboxylic acid and salts thereof” (priority 2005, dated 2013).
pIC50: −log10 of the molar value.

Target: T1, PDE5 enzyme (Homo sapiens, UniProt O76074)
T1 construct: The PDE5 enzyme isolated from human platelets; from tissue; host or cells: human platelets
Test: Method 1: Human Platelet PDE5 Enzyme Inhibition Scintillation Proximity Assay
Type: biochemical
Details: METHOD 1: PDE5 IC50, Table B, WO2004096810 examples
Text: Method 1: Human Platelet PDE5 Enzyme Inhibition Scintillation Proximity Assay
An in vitro assay can be used to evaluate the inhibition of PDE5 enzyme activity by a test compound.
The PDE5 enzyme for use in the assay can be obtained from human platelets by appropriate modification of the method of Thompson, W J et al.; Biochemistry 18(23), 5228-5237, 1979, as described by Ballard S A et al.; J. Urology 159(6), 2164-2171, 1998. The PDE5 enzyme isolated from human platelets can be used to catalyze the hydrolysis of [^3H]cGMP (Amersham Biosciences) to 5′ nucleotide [^3H]GMP. The [^3H]GMP binds to yttrium silicate SPA beads (Amersham Biosciences) and is detected by scintillation counting. More specifically, the effect of the test compound at different concentrations can be evaluated in the assay by contacting the compound with a fixed amount of PDE5 enzyme in the presence of substrate (cGMP or cAMP in a 3:1 ratio unlabelled to [^3H]-labeled). Scintillation counting can be used as described above to determine relative PDE5 enzyme activity. The inhibition of PDE5 enzyme activity is then calculated relative to total PDE5 enzyme activity of uninhibited controls.
PDE5 IC50 Assay: 96-well microtiter plate format
• Buffer A: 20 mM Tris-HCl, 5 mM MgCl2, pH 7.4 • Buffer B: 2 mg/ml BSA in Buffer A (enzyme buffer) • cGMP substrate: Final concentration of 500 nM in assay The amount of ^3H-labeled substrate added depends upon the specific activity of [^3H]cGMP, and the cGMP substrate is diluted with a 10 mM stock of cold cGMP in Buffer A for a final substrate concentration of 500 nM in the assay. • PDE enzyme: Prepared in Buffer B. The dilution factor is determined by enzyme activity. • SPA beads: 20 mg/ml suspension prepared in dH2O.
Stocks of standard and test compounds are prepared at 5 mM in 100% DMSO. The compound is serially diluted in a dilution plate using a 10-point ½ log dilution format. 2 μl of the compound dilution is added in duplicate to the wells of the assay plate. 2 μl of 100% DMSO are added to designated control wells. 25 μl of Buffer A are added to all wells. 25 μl of Buffer B are added to the negative control wells. 25 μl of enzyme are added to the remaining wells. 50 μl of substrate are added to each well. Plates are sealed and incubated for 60 minutes on a plate shaker at 30 C. 50 plof SPA beads are added to stop the reaction. The plates are again sealed and shaken for 15 minutes to allow the beads to bind the GMP product. The beads are allowed to settle for 30 minutes and then read on a NXT TopCount scintillation counter. Data are analyzed with a curve fitting application for plate-based screening. Percent inhibition in this assay is calculated as follows: Inhibition (%)=[(mean maximum−compound value/(mean maximum−mean minimum)]×100.
The IC50 value is determined from sigmoid dose-response curves of enzyme activity versus compound concentration.

| SMILES | pIC50 |
| --- | --- |
| CCOCCn1nc(CC)c2nc(N3CC(N)C3)nc(Nc3ccncn3)c21 [WO2004096810 Example 3] | 7.36 |
| CCCOCCn1nc(C)c2nc(N3CCN[C@H](C)C3)nc(Nc3cc(C)ccn3)c21 [WO2004096810 Example 4] | 8.05 |
| CCCOCCn1nc(C)c2nc(N3CCN[C@H](C)C3)nc(Nc3ccc(C)cn3)c21 [WO2004096810 Example 7] | 8.22 |
| COCCn1nc(C(C)C)c2nc(N3CCN[C@H](C)C3)nc(Nc3ccc(C)cn3)c21 [WO2004096810 Example 8] | 8.16 |
| Cc1ccc(Nc2nc(N3CCN[C@H](C)C3)nc3c(C)nn(C(C)C)c23)nc1 [WO2004096810 Example 9] | 6.29 |
| CCOCCn1nc(C)c2nc(N3CCN[C@H](C)C3)nc(Nc3ccncn3)c21 [WO2004096810 Example 11] | 9.54 |
| CCOCCn1nc(C)c2nc(N3CCN[C@@H](C)C3)nc(Nc3ccncn3)c21 [WO2004096810 Example 12] | 8.76 |
| CCOCCn1nc(C)c2nc(N3CCN[C@H](C(C)C)C3)nc(Nc3ccncn3)c21 [WO2004096810 Example 13] | 7.72 |
| CCOCCn1nc(C)c2nc(N3CCN[C@@H](C(C)C)C3)nc(Nc3ccncn3)c21 [WO2004096810 Example 14] | 7.38 |
| CCOCCn1nc(CC)c2nc(N3CCN[C@H](C)C3)nc(Nc3ccncn3)c21 [WO2004096810 Example 15] | 10.05 |
| CCOCCn1nc(CC)c2nc(N3CCN[C@@H](C)C3)nc(Nc3ccncn3)c21 [WO2004096810 Example 16] | 9.01 |
| CCOCCn1nc(CC)c2nc(N3CCN[C@H](C(C)C)C3)nc(Nc3ccncn3)c21 [WO2004096810 Example 17] | 7.65 |
| CCOCCn1nc(CC)c2nc(N3CCN[C@@H](C(C)C)C3)nc(Nc3ccncn3)c21 [WO2004096810 Example 18] | 7.59 |
| CCOCCn1nc(CC)c2nc(N3CCN[C@H](CC)C3)nc(Nc3ccncn3)c21 [WO2004096810 Example 19] | 9.31 |
| CCOCCn1ncc2nc(N3CCN[C@H](C)C3)nc(Nc3ccncn3)c21 [WO2004096810 Example 21] | 8.69 |
| CCCOCCn1nc(C)c2nc(N3CCN[C@H](C)C3)nc(Nc3ccncn3)c21 [WO2004096810 Example 23] | 9.41 |
| Cc1nn(C(C)C)c2c(Nc3ccncn3)nc(N3CCN[C@H](C)C3)nc12 [WO2004096810 Example 24] | 7.42 |
| CCOCCn1nc(C)c2nc(N3CCN[C@H](C)C3)nc(Nc3cc(C)ncn3)c21 [WO2004096810 Example 26] | 8.74 |
| CCOCCn1nc(CC)c2nc(N3CCN[C@H](C)C3)nc(N(C)c3ccncn3)c21 [WO2004096810 Example 28] | 7.32 |
| CCCc1nn(C)c2c(Nc3ccc(C)cn3)nc(N3CCNCC3)nc12 [WO2004096810 Example 34] | 7.30 |

| SMILES | pIC50 |
| --- | --- |
| CCCc1nn(C)c2c(Nc3ccc(C)cn3)nc(N3CCC(O)CC3)nc12 [WO2004096810 Example 35] | 6.13 |
| CCCc1nn(C)c2c(Nc3ccc(C)cn3)nc(N3CCCCC3)nc12 [WO2004096810 Example 36] | 5.84 |
| CCCc1nn(C)c2c(Nc3ccc(C)cn3)nc(NC3CNC3)nc12 [WO2004096810 Example 37] | < 5.00 |
| CCCc1nn(C)c2c(Nc3ccc(C)cn3)nc(N(C)C3CNC3)nc12 [WO2004096810 Example 38] | < 5.00 |
| CCCc1nn(C)c2c(Nc3cc(C)ccn3)nc(N3CCN[C@@H](C)C3)nc12 [WO2004096810 Example 39] | 6.34 |
| CCCc1nn(C)c2c(Nc3cc(C)ccn3)nc(N3CCN[C@H](C)C3)nc12 [WO2004096810 Example 40] | 6.48 |
| CCCc1nn(C)c2c(Nc3cc(C)ccn3)nc(NCc3ccc(OC)cc3)nc12 [WO2004096810 Example 71] | 6.82 |
| CCCc1nn(C)c2c(Nc3cc(C)ccn3)nc(NCCOC)nc12 [WO2004096810 Example 72] | 6.75 |
| CCCc1nn(C)c2c(Nc3cc(C)ccn3)nc(N)nc12 [WO2004096810 Example 77] | < 5.00 |
| CCCc1nn(C)c2c(Nc3ccncn3)nc(N3CCN(C)CC3)nc12 [WO2004096810 Example 80] | 5.71 |
| CCCc1nn(C)c2c(Nc3ccncn3)nc(N3CCN[C@@H](C)C3)nc12 [WO2004096810 Example 81] | 6.93 |
| CCCc1nn(C)c2c(Nc3cc(OC)ncn3)nc(N3CCNCC3)nc12 [WO2004096810 Example 83] | 6.87 |
| CCCc1nn(C)c2c(Nc3cc(OC)ncn3)nc(NC)nc12 [WO2004096810 Example 84] | 6.61 |
| CCCc1nn(C)c2c(Nc3cccnn3)nc(N3CCNCC3)nc12 [WO2004096810 Example 88] | < 7.00 |
| CCCc1nn(C)c2c(Nc3ncc[nH]3)nc(NC)nc12 [WO2004096810 Example 90] | 5.81 |
| CCCc1nn(C)c2c(Nc3ccncn3)nc(N3CCN[C@H](C)C3)nc12 [WO2004096810 Example 91] | 7.65 |
| COCCCn1nc(C)c2nc(N(C)CCO)nc(Nc3cc(C)ccn3)c21 [WO2004096810 Example 92] | 7.58 |
| COCCNc1nc(Nc2cc(C)ccn2)c2c(n1)c(C)nn2CCOC [WO2004096810 Example 93] | 7.51 |
| CCc1nn(CCOC)c2c(Nc3cc(C)ccn3)nc(N3CCC(O)CC3)nc12 [WO2004096810 Example 94] | 7.36 |
| COCCn1nc(C)c2nc(N3CC[C@H](OC)C3)nc(Nc3cc(C)ccn3)c21 [WO2004096810 Example 95] | 7.12 |

| SMILES | pIC50 |
| --- | --- |
| COCCCn1nc(C)c2nc(NCCO)nc(Nc3cc(C)ccn3)c21 [WO2004096810 Example 96] | 7.06 |
| CCc1nn(CCOC)c2c(Nc3cc(C)ccn3)nc(NC[C@@H]3CCCN3)nc12 [WO2004096810 Example 98] | 6.64 |
| CNc1nc(Nc2cc(C)ccn2)c2c(n1)c(C)nn2CCCOC [WO2004096810 Example 99] | 6.62 |
| COCCCn1nc(C)c2nc(N3CC[C@@H](O)C3)nc(Nc3cc(C)ccn3)c21 [WO2004096810 Example 100] | 7.17 |
| CCc1nn(CCOC)c2c(Nc3ccc(C)cn3)nc(NCCCO)nc12 [WO2004096810 Example 103] | 7.12 |
| CCc1nn(CCOC)c2c(Nc3ccc(C)cn3)nc(N3CCOCC3)nc12 [WO2004096810 Example 108] | 6.11 |
| CCc1nn(CCOC)c2c(Nc3ccccn3)nc(N(C)CCO)nc12 [WO2004096810 Example 109] | 7.56 |
| CCc1nn(CCOC)c2c(Nc3ccc(F)cn3)nc(NCCOC)nc12 [WO2004096810 Example 110] | 6.29 |
| CCCc1nn(C)c2c(Nc3ccc(C)cn3)nc(N3CCN(C)CC3)nc12 [WO2004096810 Example 113] | 5.90 |
| COCCCn1nc(C)c2nc(N[C@@H](C)CO)nc(Nc3cc(C)cc(C)n3)c21 [WO2004096810 Example 114] | 7.22 |
| CCc1nn(CCOC)c2c(Nc3cc(C)n[nH]3)nc(NCCn3cccn3)nc12 [WO2004096810 Example 115] | 6.66 |
| COCCCn1nc(C)c2nc(N3CCNCC3)nc(Nc3cc(C)n[nH]3)c21 [WO2004096810 Example 116] | 5.75 |
| CCCc1nn(C)c2c(Nc3ccc(CC)cn3)nc(N3CCNCC3)nc12 [WO2004096810 Example 123] | 6.61 |
| CCCc1nn(C)c2c(NC3CCCCC3)nc(N3CCNCC3)nc12 [WO2004096810 Example 124] | 7.11 |
| CCCc1nn(C)c2c(Nc3cc(C)cc(C)n3)nc(N3CCNCC3)nc12 [WO2004096810 Example 125] | 6.74 |
| CCCc1nn(C)c2c(N[C@H]3CC[C@H](O)CC3)nc(N3CCNCC3)nc12 [WO2004096810 Example 126] | 5.65 |
| CCCc1nn(C)c2c(NC3CCC(OC)CC3)nc(N3CCNCC3)nc12 (stereo not drawn) [WO2004096810 Example 127] | 5.12 |
| CCCc1nn(C)c2c(Nc3cccc(C(=O)NC)n3)nc(N3CCNCC3)nc12 [WO2004096810 Example 128] | 5.86 |
| CCCc1nn(C)c2c(NC3CCCC3)nc(N3CCNCC3)nc12 [WO2004096810 Example 129] | 6.86 |
| CCCc1nn(C)c2c(N(C)C3CCN(C)CC3)nc(NC)nc12 [WO2004096810 Example 130] | < 5.00 |
